Measurements from patent publication US20250144054A1, “SMALL MOLECULE STAT3 INHIBITOR FOR TREATING TRIPLE NEGATIVE BREAST CANCER” (UNIVERSITY OF MARYLAND, BALTIMORE, priority 2022, published 2025).

What was measured:
STAT3 = assay: Western blot of P-STAT3 (Y705), STAT3, Cyclin D1, Cleaved Caspase-3 in SUM159 cells; assay type: cell-based, human; details: SUM159, overnight, vs DMSO
Protocol: (A) MDA-MB-231, SUM159, and 4T1 cell lines were treated with DMSO or LLL12B overnight and the expression levels of P-STAT3 (Y705), STAT3, Cyclin D1, and Cleaved Caspase-3 were analyzed by Western blot. GAPDH served as a protein loading control. (B) MDA-MB-231 cells were treated with DMSO or C188-9 overnight and the expression levels of P-STAT3 (Y705), STAT3, Cyclin D1, and Cleaved Caspase-3 were analyzed by Western blot. (C) MDA-MB-231, SUM159, and 4T1 cells were seeded in a 96-well plate and treated with DMSO or LLL12B for 5 hours and a Caspase-3/7 Fluorescence Assay Kit was used to detect the activation of caspase-3/7. (D) MDA-MB-231, SUM159, and 4T1 cell lines were treated with DMSO or LLL12B for 8-12 hours, and flow cytometry was performed to analyze annexin V and PI staining. The quantification of apoptotic cells was shown in the right panel. ** P<0.01, *** P<0.001 and ****P<0.0001.
SiRNA and transfection. STAT3 siRNA and Negative Control siRNA (Cell Signaling Technology, Danvers, MA, USA) were used to knock down STAT3 in MDA-MB-231, SUM159, and 4T1 cell lines. Cells were transfected with STAT3 siRNA or Negative Control siRNA using Lipofectamine RNAiMAX (Invitrogen, Carlsbad, CA, USA) according to the manufacturer's instructions. After 72 hours, cell viability was examined by MTT cell viability assay, and the transfection efficiency was examined by western blot.
Western blot. Cells were collected and total protein was extracted using cell lysis buffer (Cell Signaling Technology, Danvers, MA, USA). Protein concentration was determined using the Pierce BCA Protein Assay Kit (Thermo Fisher Scientific, Waltham, MA, USA) according to the manufacturer's instructions. Equal amounts of protein were separated by 10% SDS-PAGE gels and transferred to PVDF membranes. Membranes were blocked in 5% non-fat milk at room temperature and probed with specific antibodies P-STAT3 (Y705), STAT3, Cyclin D1, Cleaved Caspase-3, P-STAT1 (Y701), STAT1, P-ERK, ERK or GAPDH (1:1000, Cell Signaling Technology, Danvers, MA, USA) at 4° C. overnight. […]

caspase-3/7 = assay: Caspase-3/7 activity assay, MDA-MB-231 cells; assay type: cell-based, human; details: MDA-MB-231, 5 hours, vs DMSO
Protocol: Caspase-3/7 activity assay. The Caspase-3/7 Fluorescence Assay Kit (Cayman, Ann Arbor, MI, USA) was used to detect the activation of caspase-3/7 and the assay was performed according to the manufacturer's instructions. Briefly, MDA-MB-231, SUM159, and 4T1 cells were seeded in a 96-well plate in triplicate. After overnight incubation, cells were treated with either LLL12B or DMSO for 5 hours. Cells were lysed and processed to measure caspase-3/7 activity and the fluorescence intensity was read (excitation=485 nm; emission=535 nm).

CN(C)C(=O)Oc1cccc2c1C(=O)c1cccc(S(N)(=O)=O)c1C2=O [LLL12B]
Cyclin D1 expression (STAT3): decreased | expression of Cleaved Caspase-3 (STAT3): enhanced | phosphorylation of STAT3 (STAT3): decreased | activation of caspase-3/7 (caspase-3/7): induced the activation
